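Each compound was tested at five concentrations against cells in 96-well plates for 48 hours. GI50 marks 50% less growth.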 The source made the active and inactive calls. Rule as the data show it: active = GI50 up to about 1.1 µM and inactive = higher.
Tests used:
Test in all cases: NCI-60 cell line screen, 48 h
NCI-H23 = system: NCI-H23
SK-MEL-5 = system: SK-MEL-5
IGROV-1 = system: IGROV-1
K562 = system: K562
M14 = system: M14
U-251 = system: U-251
HT-29 = system: HT-29
CCRF-CEM = system: CCRF-CEM
SK-MEL-2 = system: SK-MEL-2
SNB-78 = system: SNB-78
ACHN = system: ACHN
EKVX = system: EKVX
RPMI-8226 = system: RPMI-8226
PC-3 = system: PC-3
SR = system: SR
BT-549 = system: BT-549
MDA-N = system: MDA-N
Hs-578T = system: Hs-578T
MDA-MB-435 = system: MDA-MB-435
MDA-MB-231 = system: MDA-MB-231

| Structure (SMILES) | GI50 (NCI-H23) | GI50 (SK-MEL-5) | GI50 (IGROV-1) | GI50 (K562) | GI50 (M14) | GI50 (U-251) | GI50 (HT-29) | GI50 (CCRF-CEM) | GI50 (SK-MEL-2) | GI50 (SNB-78) | GI50 (ACHN) | GI50 (EKVX) | GI50 (RPMI-8226) | GI50 (PC-3) | GI50 (SR) | GI50 (BT-549) | GI50 (MDA-N) | GI50 (Hs-578T) | GI50 (MDA-MB-435) | GI50 (MDA-MB-231) |
| --- | --- | --- | --- | --- | --- | --- | --- | --- | --- | --- | --- | --- | --- | --- | --- | --- | --- | --- | --- | --- |
| O=[N+]([O-])c1cccc(C2=NOC(C3CCCCC3)C2)c1 (configuration not stated) | > 100 µM (inactive) | > 100 µM (inactive) | > 100 µM (inactive) | > 100 µM (inactive) | > 100 µM (inactive) | > 100 µM (inactive) | 82 µM (inactive) | > 100 µM (inactive) | > 100 µM (inactive) | > 100 µM (inactive) | > 100 µM (inactive) | – | – | – | – | – | – | – | – | – |
| O=C(c1ccccc1)N1CCN2CCN=C(c3ccccc3)C21c1ccccc1 (configuration not stated) | 80.2 µM (inactive) | > 100 µM (inactive) | > 100 µM (inactive) | 29.1 µM (inactive) | 61.2 µM (inactive) | > 100 µM (inactive) | > 100 µM (inactive) | 61.9 µM (inactive) | > 100 µM (inactive) | > 100 µM (inactive) | 63.1 µM (inactive) | 70.8 µM (inactive) | 25.5 µM (inactive) | – | – | – | – | – | – | – |
| NS(=O)(=O)c1ccc(NC(=S)N/C=C2\C(=O)Nc3ccccc3C2=O)cc1 | > 100 µM (inactive) | > 100 µM (inactive) | > 100 µM (inactive) | > 100 µM (inactive) | > 100 µM (inactive) | > 100 µM (inactive) | > 100 µM (inactive) | > 100 µM (inactive) | > 100 µM (inactive) | – | > 100 µM (inactive) | > 100 µM (inactive) | > 100 µM (inactive) | > 100 µM (inactive) | > 100 µM (inactive) | > 100 µM (inactive) | > 100 µM (inactive) | > 100 µM (inactive) | > 100 µM (inactive) | > 100 µM (inactive) |
| COC(=O)c1sc2c(c1C(=O)OC)/C(=N/c1ccc(OC)cc1)S/C2=N\c1ccc(OC)cc1 | 1.57 µM (inactive) | 1.21 µM (inactive) | 1.2 µM (inactive) | 0.389 µM (active) | 1.45 µM (inactive) | 0.348 µM (active) | 0.522 µM (active) | 0.104 µM (active) | 0.624 µM (active) | – | 1.24 µM (inactive) | 1.55 µM (inactive) | 0.275 µM (active) | 0.462 µM (active) | 0.485 µM (active) | 1.54 µM (inactive) | 1.15 µM (inactive) | 1.5 µM (inactive) | 0.785 µM (active) | 0.853 µM (active) |
| CC1=NN(c2nc(N)nc(/C(C#N)=C\c3cccc([N+](=O)[O-])c3)n2)C(C)(C)C1 | 10.1 µM (inactive) | 20.5 µM (inactive) | 5.05 µM (inactive) | 11.9 µM (inactive) | 20 µM (inactive) | 6.78 µM (inactive) | 11.7 µM (inactive) | 10.8 µM (inactive) | 16.4 µM (inactive) | – | 15.8 µM (inactive) | 29.9 µM (inactive) | 5.65 µM (inactive) | 11.5 µM (inactive) | 30.1 µM (inactive) | > 20.7 µM (inactive) | 13.2 µM (inactive) | 18.5 µM (inactive) | 11.2 µM (inactive) | 9.29 µM (inactive) |
| CCc1cc(C(=O)OC)cn1C(=N)c1ccc(Cl)cc1 | > 100 µM (inactive) | > 100 µM (inactive) | > 100 µM (inactive) | > 100 µM (inactive) | > 100 µM (inactive) | > 100 µM (inactive) | > 100 µM (inactive) | > 100 µM (inactive) | > 100 µM (inactive) | > 100 µM (inactive) | > 100 µM (inactive) | > 100 µM (inactive) | > 100 µM (inactive) | – | – | – | – | – | – | – |
| O=C(O)CC1NCc2cc3ccccc3nc21 (configuration not stated) | > 100 µM (inactive) | > 100 µM (inactive) | > 100 µM (inactive) | > 100 µM (inactive) | > 100 µM (inactive) | > 100 µM (inactive) | > 100 µM (inactive) | > 100 µM (inactive) | > 100 µM (inactive) | – | > 100 µM (inactive) | 61.9 µM (inactive) | > 100 µM (inactive) | > 100 µM (inactive) | > 100 µM (inactive) | > 100 µM (inactive) | > 100 µM (inactive) | > 100 µM (inactive) | > 100 µM (inactive) | > 100 µM (inactive) |
| NC(=O)C(c1ccccc1)N1OC2C(=O)N(c3ccccc3)C(=O)C2C1c1c2ccccc2c(Cl)c2ccccc12 (configuration not stated) | > 100 µM (inactive) | > 100 µM (inactive) | > 100 µM (inactive) | > 100 µM (inactive) | > 100 µM (inactive) | > 100 µM (inactive) | > 100 µM (inactive) | 61.4 µM (inactive) | > 100 µM (inactive) | – | > 100 µM (inactive) | > 100 µM (inactive) | > 100 µM (inactive) | > 100 µM (inactive) | > 100 µM (inactive) | > 100 µM (inactive) | > 100 µM (inactive) | > 100 µM (inactive) | > 100 µM (inactive) | > 100 µM (inactive) |

— ChEMBL document CHEMBL1201862, “PubChem BioAssay data set” (2004)
